Experimental data: patent US6469060B2, “Compositions based on iodopropynyl-and formaldehyde donor compounds and to their use as preservatives” (Air Liquide Sante (International), priority 1997, dated 2002)

Tests used:
[1] = Formaldehyde emission of N-formals, Dräger tubes (Example 9); assay type: physicochemical; details: pure N-formal, 1 g overnight in covered 400 ml beaker; for formaldehyde content: Dräger tubes (10 strokes)
Description: For this purpose, 1 g of each of the N-formals was left to stand overnight in a 400 ml beaker covered with para-film. On the following day, the formaldehyde content was then measured using Dräger tubes (10 strokes) as described in Example 1.
The formaldehyde content was 15 ppm (2 strokes 3 ppm) in 3,3′-methylenebis(tetrahydro-2H-1,3-oxazine) and 25 ppm (2 strokes 5 ppm) in Mar 71™. Preparations of 80% by weight of each N-formal and 20% by weight of 1,2-propylene glycol display a clearly different behavior. For example, the addition of 1,2-PLG to 3,3′-methylenebis(tetrahydro-2H-1,3-oxazine) leads to a reduction in the formaldehyde content to form 1.5 to 2.5 ppm (20 strokes) and the addition to Mar 71™ to a reduction to 10 ppm (5 strokes 5 ppm), the formaldehyde content being determined as described above for pure N-formals.

[2] = Stability and compatibility of IPBC with various N-formals, storage at +40° C. in clear glass (Example 2); assay type: physicochemical; details: discoloration and IPBC degradation
Description: The stability and compatibility of IPBC in compositions containing 3% by weight of IPBC, from 80 to 97% by weight of N-formals and […] by weight of 1,2-PLG were determined as a function of the storage time after the solutions had been stored at a temperature of +40° C. in clear glass.
The initially clear, colorless to slightly yellowish solutions became discoloured to varying degrees after storage for three months at a temperature of +40° C. Only the compositions based on IPBC and Mar 71 retained their clear, slightly yellowish appearance.
A summary of the development of the IPBC content, determined by means of HPLC (IPBC starting content 3% by weight) in the compositions investigated as a function of the storage period, is given in Table IV.

formaldehyde content, reading at 2 strokes [1]	formaldehyde content [1]	Compatibility with IPBC [2]	SMILES
3 ppm	15 ppm	–	C1COCN(CN2CCCOC2)C1 [3,3′-methylenebis(tetrahydro-2H-1,3-oxazine), reference compound]
–	–	incompatible	OCCN1CN(CCO)CN(CCO)C1 [Grotan BK TM, 1,3,5-tris(hydroxyethyl)hexahydrotriazine]
5 ppm	25 ppm	–	CC1CN(CN2COC(C)C2)CO1 (centres unmarked) [Mar 71™, 3,3′-methylenebis(5-methyloxazolidine)]
